This assay has as its system L1210 leukemia ip in BDF1 mice, survival T/C. Nature of the assay: NCI In Vivo Anticancer Drug Screen. Data for tumor model L1210 Leukemia (intraperitoneal) in B6D2F1 (BDF1) mice. Particulars: endpoint: mean survival time, higher = longer survival. The essentials:
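Transplanted-tumor mice were given test agent; controls received vehicle only. Survival readings from the two groups were divided (treated over control).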

The mark [1] stands for this setting: dose: 100.0 mg/kg/injection, schedule: Q04DX003 (ip), vehicle: saline.
The mark [2] stands for this setting: dose: 200.0 mg/kg/injection, schedule: Q04DX003 (ip), vehicle: saline.
[3] abbreviates: dose: 400.0 mg/kg/injection, schedule: Q04DX003 (ip), vehicle: saline.
Setting [4] is: dose: 100.0 mg/kg/injection, schedule: Q04DX003 (ip), vehicle: saline with Tween-80.
[5] abbreviates: dose: 100.0 mg/kg/injection, schedule: Q01DX009 (ip), vehicle: Klucel (hydroxypropylcellulose) (HPC).
Where [6] appears, read: dose: 100.0 mg/kg/injection, schedule: Q04DX003 (ip), vehicle: Klucel (hydroxypropylcellulose) (HPC).
Where [7] appears, read: dose: 200.0 mg/kg/injection, schedule: Q01DX009 (ip), vehicle: Klucel (hydroxypropylcellulose) (HPC).
Where [8] appears, read: dose: 200.0 mg/kg/injection, schedule: Q04DX003 (ip), vehicle: Klucel (hydroxypropylcellulose) (HPC).
Setting [9] is: dose: 400.0 mg/kg/injection, schedule: Q04DX003 (ip), vehicle: Klucel (hydroxypropylcellulose) (HPC).
Where [10] appears, read: dose: 25.0 mg/kg/injection, schedule: Q01DX009 (ip), vehicle: saline.
[11] abbreviates: dose: 25.0 mg/kg/injection, schedule: Q04DX003 (ip), vehicle: saline.
The mark [12] stands for this setting: dose: 50.0 mg/kg/injection, schedule: Q01DX009 (ip), vehicle: saline.
Where [13] appears, read: dose: 50.0 mg/kg/injection, schedule: Q04DX003 (ip), vehicle: saline.
Setting [14] is: dose: 100.0 mg/kg/injection, schedule: Q01DX009 (ip), vehicle: saline with Tween-80.
Setting [15] is: dose: 100.0 mg/kg/injection, schedule: Q01DX009 (ip), vehicle: saline.
Where [16] appears, read: dose: 200.0 mg/kg/injection, schedule: Q01DX009 (ip), vehicle: saline with Tween-80.
The mark [17] stands for this setting: dose: 200.0 mg/kg/injection, schedule: Q01DX009 (ip), vehicle: saline.
The mark [18] stands for this setting: dose: 100.0 mg/kg/injection, schedule: Q01DX001 (ip), vehicle: saline.
Where [19] appears, read: dose: 100.0 mg/kg/injection, schedule: Q04DX002 (ip), vehicle: Klucel (hydroxypropylcellulose) (HPC).
[20] abbreviates: dose: 200.0 mg/kg/injection, schedule: Q04DX002 (ip), vehicle: Klucel (hydroxypropylcellulose) (HPC).
The mark [21] stands for this setting: dose: 400.0 mg/kg/injection, schedule: Q04DX002 (ip), vehicle: Klucel (hydroxypropylcellulose) (HPC).
[22] abbreviates: dose: 100.0 mg/kg/injection, schedule: Q04DX003 (ip), vehicle: saline sonified.
Where [23] appears, read: dose: 200.0 mg/kg/injection, schedule: Q04DX003 (ip), vehicle: saline sonified.
The mark [24] stands for this setting: dose: 400.0 mg/kg/injection, schedule: Q04DX003 (ip), vehicle: saline sonified.

“And” between values parts separate entries of the source, which are not always exact repeats. Identical values can stand only once. Inconclusive results and toxic doses are left out.

For `CCCCCCCCSC(C)(C)C`, the T/C by setting is: under setting [1], 102 % of control; under setting [2], 101 % of control; under setting [3], 93 % of control.
On to `CC(CNC(=O)CCOS(C)(=O)=O)NC(=O)CCOS(C)(=O)=O` (configuration not stated), for which the T/C is 104 % of control (dose: 22.0 mg/kg/injection, schedule: Q01DX Z (ip), vehicle: carboxymethylcellulose (CMC)); 111 % of control (dose: 33.0 mg/kg/injection, schedule: Q01DX Z (ip), vehicle: carboxymethylcellulose (CMC)); 100 % of control and 113 % of control (dose: 50.0 mg/kg/injection, schedule: Q01DX Z (ip), vehicle: carboxymethylcellulose (CMC)); 107 % of control (dose: 76.0 mg/kg/injection, schedule: Q01DX Z (ip), vehicle: carboxymethylcellulose (CMC)); 153 % of control (dose: 113.0 mg/kg/injection, schedule: Q01DX Z (ip), vehicle: carboxymethylcellulose (CMC)); 113 % of control (dose: 170.0 mg/kg/injection, schedule: Q01DX Z (ip), vehicle: carboxymethylcellulose (CMC)).
Take `OCCOc1cccc(OCCO)c1`: the T/C is, setting by setting: under setting [4], 103 % of control; (dose: 200.0 mg/kg/injection, schedule: Q04DX003 (ip), vehicle: saline with Tween-80) 104 % of control; (dose: 400.0 mg/kg/injection, schedule: Q04DX003 (ip), vehicle: saline with Tween-80) 92 % of control.
Turning to `CCNCCCNCC(Cc1ccccc1)c1ccccc1` (configuration not stated), the T/C (dose: 100.0 mg/kg/injection, schedule: Q04DX002 (ip), vehicle: saline) is 102 % of control.
As to `O=C(Nc1ccc(Cl)c(Cl)c1)Oc1ccc2ccccc2c1`, the T/C by setting is: under setting [5], 90 % of control; under setting [6], 104 % of control; under setting [7], 101 % of control; under setting [8], 90 % of control; (dose: 400.0 mg/kg/injection, schedule: Q01DX009 (ip), vehicle: Klucel (hydroxypropylcellulose) (HPC)) 95 % of control; under setting [9], 90 % of control.
Turning to `C[N+](C)(C)C1CC1`, the T/C by setting is: (dose: 12.5 mg/kg/injection, schedule: Q01DX009 (ip), vehicle: saline) 94 % of control; under setting [10], 98 % of control; under setting [11], 93 % of control; under setting [12], 96 % of control and 102 % of control; under setting [13], 103 % of control.
As for `CN(C)C(=S)N=Nc1ccccc1`, the T/C runs as follows: (dose: 50.0 mg/kg/injection, schedule: Q01DX009 (ip), vehicle: saline with Tween-80) 92 % of control; under setting [12], 97 % of control; under setting [14], 100 % of control; under setting [15], 100 % of control; under setting [16], 100 % of control; under setting [17], 107 % of control.
As to `Cc1ccc(C)c(N2CCN(c3ccncc3N)CC2)c1`, the T/C is 98 % of control (dose: 75.0 mg/kg/injection, schedule: Q01DX001 (ip), vehicle: saline with Tween-80); 95 % of control (dose: 75.0 mg/kg/injection, schedule: Q01DX009 (ip), vehicle: saline with Tween-80); 93 % of control (dose: 150.0 mg/kg/injection, schedule: Q01DX001 (ip), vehicle: saline with Tween-80); 102 % of control (dose: 150.0 mg/kg/injection, schedule: Q01DX009 (ip), vehicle: saline with Tween-80); 101 % of control (dose: 300.0 mg/kg/injection, schedule: Q01DX001 (ip), vehicle: saline with Tween-80).
With `CC1=CC(C)(C)Nc2ccc(Cc3ccc4c(c3)C(C)=CC(C)(C)N4)cc21`, the T/C runs as follows: under setting [14], 86 % of control; under setting [16], 100 % of control; (dose: 400.0 mg/kg/injection, schedule: Q01DX009 (ip), vehicle: saline with Tween-80) 92 % of control.
As for `Nc1nc(N)c(-c2ccc(Cl)cc2)c(COc2cccc(NC(=O)c3ccc(NC(=O)CBr)cc3)c2)n1`, the T/C was 91 % of control under setting [18]; 91 % of control (dose: 200.0 mg/kg/injection, schedule: Q01DX001 (ip), vehicle: saline); 104 % of control (dose: 400.0 mg/kg/injection, schedule: Q01DX001 (ip), vehicle: saline).
On to `O=C(O)C1c2ccccc2Cc2ccccc21`, for which the T/C reads like this: under setting [5], 110 % of control; under setting [6], 103 % of control; under setting [7], 101 % of control; under setting [8], 97 % of control; under setting [9], 106 % of control.
With `c1ccc([Si]([O][Sn]([c]2ccccc2)([c]2ccccc2)[c]2ccccc2)(c2ccccc2)c2ccccc2)cc1`, the T/C by setting is: (dose: 25.6 mg/kg/injection, schedule: Q04DX002 (ip), vehicle: saline with Tween-80) 89 % of control; (dose: 64.0 mg/kg/injection, schedule: Q04DX002 (ip), vehicle: saline with Tween-80) 93 % of control; (dose: 160.0 mg/kg/injection, schedule: Q04DX002 (ip), vehicle: saline with Tween-80) 93 % of control; (dose: 400.0 mg/kg/injection, schedule: Q04DX002 (ip), vehicle: saline with Tween-80) 89 % of control.
With `O=C(Nc1ccc(Cl)c(Cl)c1)OCc1cc[n+]([O-])cc1`, the T/C runs as follows: under setting [19], 103 % of control; under setting [20], 98 % of control; under setting [21], 106 % of control.
Consider `CCOC1=NC(C)(C)CC(C)O1` (configuration not stated), for which the T/C (dose: 25.0 mg/kg/injection, schedule: Q04DX003 (ip), vehicle: saline with Tween-80) was 95 % of control; the T/C (dose: 50.0 mg/kg/injection, schedule: Q04DX003 (ip), vehicle: saline with Tween-80) is 101 % of control; the T/C under setting [4] was 102 % of control.
`C1CN(CC2COC(CN3CCOCC3)CO2)CCO1` (configuration not stated): the T/C is 106 % of control under setting [1], 97 % of control under setting [2] and 98 % of control under setting [3].
Regarding `O=C1c2ccccc2C(=O)N1c1c2ccccc2cc2ccccc12`, the T/C runs as follows: under setting [22], 98 % of control; under setting [23], 95 % of control; under setting [24], 95 % of control.
Turning to `O=C(Nc1ccc(Cl)cc1C(=O)c1ccccc1)c1ccc([N+](=O)[O-])cc1`, the T/C is 89 % of control under setting [19], 95 % of control under setting [20] and 92 % of control under setting [21].
For the compound `C=Nc1ccc(Cl)cc1`, the T/C was 98 % of control (dose: 50.0 mg/kg/injection, schedule: Q01DX001 (ip), vehicle: carboxymethylcellulose (CMC)); 93 % of control (dose: 100.0 mg/kg/injection, schedule: Q01DX001 (ip), vehicle: carboxymethylcellulose (CMC)); 98 % of control (dose: 200.0 mg/kg/injection, schedule: Q01DX001 (ip), vehicle: carboxymethylcellulose (CMC)).
Consider `CS(=O)(=O)c1nc(Cl)nc(S(C)(=O)=O)c1Cl`, for which the T/C under setting [6] is 110 % of control, the T/C under setting [8] was 107 % of control and the T/C under setting [9] is 104 % of control.
In the case of `OCCN1CCN(Cc2cccc3ccccc23)CC1`, the T/C under setting [10] is 112 % of control; the T/C under setting [11] was 101 % of control; the T/C under setting [12] was 98 % of control; the T/C under setting [13] was 102 % of control; the T/C under setting [18] was 103 % of control; the T/C under setting [15] was 102 % of control. Moreover, the T/C under setting [1] is 98 % of control.
For the compound `O=C(O)c1ccnc(C(=O)O)c1`, the T/C by setting is: under setting [15], 89 % of control; under setting [22], 98 % of control; under setting [17], 93 % of control; under setting [23], 93 % of control; (dose: 400.0 mg/kg/injection, schedule: Q01DX009 (ip), vehicle: saline) 97 % of control; under setting [24], 92 % of control.
Turning to `C=C(C)C1(CCC)C(=O)NC(=S)NC1=O`, the T/C by setting is: (dose: 75.0 mg/kg/injection, schedule: Q01DX001 (ip), vehicle: saline) 107 % of control; (dose: 150.0 mg/kg/injection, schedule: Q01DX001 (ip), vehicle: saline) 111 % of control; (dose: 300.0 mg/kg/injection, schedule: Q01DX001 (ip), vehicle: saline) 116 % of control.

Source of the values: PubChem BioAssay AID248 (DTP/NCI, 2004).
